{"source": "patent US20180110754A1", "about": "“CENICRIVIROC FOR THE TREATMENT OF FIBROSIS” (Tobira Therapeutics, Inc., priority 2015, published 2018)", "key": {"[1]": {"assay": "Study 201: safety and tolerability", "type": "in vivo, human", "method": "Participants were required to be antiretroviral treatment-experienced, CCR5 antagonist-naive, with HIV-1 RNA levels of at least 5000 copies/mL and CD4+ cell counts of at least 250 cells/mm^3 was performed."}, "mouse monocytes": {"tested_on": "mouse monocytes", "assay": "CCL2-induced chemotaxis ex vivo on mouse monocytes", "type": "cell-based", "method": "Monocyte/macrophage recruitment was assessed in vivo in a mouse model of thioglycollate-induced peritonitis. CCL2-induced chemotaxis was evaluated ex vivo on mouse monocytes. […] Study assessments included body and liver/kidney weight, liver function test, liver/kidney morphology and collagen deposition, fibrogenic gene and protein expression, and pharmacokinetic analyses."}, "Mouse toxicity studies": {"assay": "Mouse toxicity studies", "type": "in vivo", "conditions": "doses up to 2000 mg/kg/day, no surgical procedures"}, "HIV-1 BaL": {"tested_on": "HIV-1 BaL", "assay": "Extracellular virus (viral RNA, p24) in culture fluids of PM-1 cells exposed to HIV-1 BaL", "type": "cell-based", "conditions": "4 hrs post-infection, CVC 20 nM, MVC 50 nM", "source_text": "Cells. PM-1 cells that express CD4, CCR5, and CXCR4 were maintained in RPMI-1640 medium containing 10% fetal bovine serum (R10 medium) at 37C, 5% CO2. 293T cells used for transfection were maintained in DMEM at 10% FBS, L-glutamine, and antibiotics (D10 medium) at 37C, 5% CO2. Virus Stocks. HIV-1 BaL virus was produced by transfecting 293T cells with the plasmid pWT/BaL. Lipofectamine 2000 was used as a transfection agent. Culture supernatants were collected at 48 hrs post-transfection, filtered through a 0.45 μm pore filter, and treated with 50 units of benzonase per ml of virus stock for 20 minutes at 37C to remove contaminating plasmid DNA. Virus stocks were frozen at −80C to halt benzonase activity. Benzonase-treated virus stocks were propagated in cord blood mononuclear cells (CBMCs). CBMCs were stimulated for 72 h with phytohemagluttinin (PHA-M) in R10 medium prior to infection with HIV-1 BaL. The viral amplification culture was subsequently grown in R10 supplemented with interleukin 2 (IL-2) and incubated at 37C, 5% CO2.\nBoth drugs were incubated with PM-1 cells for 1 hr at 37 C prior to the addition of virus. 500 ng of p24 antigen of HIV-1 BaL were incubated per 5×10^5 cells in 1 ml of R10 media. Virus only controls, described as “no cell” in the text, were used to measure viral decay. Viral adsorption was measured in the no-drug controls, whereby 500 ng of p24 Ag of HIV-1 Bal were added per 5×10^5 PM-1 cells that were pre-incubated at 37 C for 1 hr in the absence of drug treatment. Each drug treatment and control was performed in duplicate. Viral RNA was extracted from 140 μl of supernatant fluid using the QIAamp Viral RNA mini kit according to manufacturer's instructions. Samples were stored at −80 C until analysis. Supernatant viral loads were measured using quantitative real-time reverse transcription PCR (qRT-PCR) with the primers US1SSF (5′-[…]-3′), US1SSR (5′-[…]-3′) and US1SS probe (5′-(FAM) […]) and the Invitrogen qRT-PCR Supermix Kit. Cycling parameters were: 50° C. for 15 minutes, 95° C. for 10 minutes, followed by 50 cycles of 95° C. for 15 seconds, and 60° C. for 1 minute. All values are the result of replicate testing over 2 independent experiments. RNA copy number was quantified by use of 10-fold serial dilutions of pBaL/wt to generate standard curves for each assay and calibrated against samples with known copy numbers from previous studies."}, "HIV-1": {"tested_on": "HIV-1", "assay": "Study 201: pharmacokinetic/pharmacodynamic Emax model", "type": "in vivo, human", "conditions": "for Emax: read-out: Percent of the maximum inhibitory effect at average Css (Emax model)", "source_text": "Drug response was characterized using the following maximum effect (Emax) model:\nwhere E is effect, E0 is the baseline effect (fixed to 0), Imax is the maximum inhibition, C denotes the PK variable (AUC0-24, Cmax, or steady-state concentration [Css]), IC50 is the value of the PK variable which corresponds to 50% of the maximum inhibition and γ is the shape parameter which describes the degree of sigmoidicity."}, "CCR7": {"target": "CCR7 (Homo sapiens, UniProt P32248)", "sequence (P32248 25-378)": "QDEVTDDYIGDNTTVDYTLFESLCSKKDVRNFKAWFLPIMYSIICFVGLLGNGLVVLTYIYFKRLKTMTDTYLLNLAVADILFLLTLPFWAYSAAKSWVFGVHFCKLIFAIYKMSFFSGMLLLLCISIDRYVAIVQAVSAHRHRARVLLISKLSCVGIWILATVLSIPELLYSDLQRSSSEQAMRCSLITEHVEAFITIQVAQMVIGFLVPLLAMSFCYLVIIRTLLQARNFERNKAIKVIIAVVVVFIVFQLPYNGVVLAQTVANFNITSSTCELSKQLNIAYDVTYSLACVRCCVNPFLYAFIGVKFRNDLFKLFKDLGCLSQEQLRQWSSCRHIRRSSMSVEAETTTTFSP", "assay": "Inhibition of ligand binding to CCR7"}, "[2]": {"assay": "Mouse thioglycollate-induced peritonitis model: CVC plasma levels (LC/MS/MS)", "type": "in vivo", "method": "The lavage fluid was placed on wet ice pending processing for total and differential cell counts using the Advia analyzer. Following the lavage collection, a blood sample (0.7 mL) was collected from each mouse by intracardiac puncture or from the vena cava (collection time was recorded). 0.5 mL of blood was placed in an EDTA tube, transferred to clinical pathology and analyzed for differential cell counts using the Advia analyzer. 0.2 mL of blood was placed in a K2EDTA tube and processed to plasma. The plasma was collected by centrifugation (3000 rpm for 10 minutes at 4° C.) and placed on dry ice. The samples were analyzed to determine CVC plasma levels. After blood collection, the animals were then exsanguinated by sectioning of the abdominal aorta.\nAnimals received the test article by oral gavage from Days 1 to 5. The twice daily (BID) dosing in Groups 2 to 5 was separated by approximately 12 hours. Blood samples were collected on Day 6 for assessment of plasma levels. Samples were collected by intracardiac puncture or from the vena cava, placed in a K2EDTA tube, and processed to plasma. Samples were stored frozen at −70 to −90° until analyzed. Due to the sacrifice time (48 hours after thioglycollate administration) being dictated by the primary endpoint, samples were collected approximately 14 hours postdose for Groups 2-5 and 26 hours postdose for the remaining groups. No samples were collected for animals 105, 201, 303 and 503."}}, "note": "Like-named read-outs stand apart in the source and are kept apart here.", "data": [{"smiles": "CCCCOCCOc1ccc(-c2ccc3c(c2)/C=C(/C(=O)Nc2ccc([S@@+]([O-])Cc4cncn4CCC)cc2)CCCN3CC(C)C)cc1", "note": "[CVC, (S)-8-[4-(2-Butoxyethoxy)phenyl]-1-isobutyl-N-(4-{[(1-propyl-1H-imidazol-5-yl)methyl]sulfinyl}phenyl)-1,2,3,4-tetrahydro-1-benzazocine-5-carboxamide]", "values": [{"measurement": "Subjects with ALT and/or AST elevations (all Grade 1)", "setting": "[1]; 25 mg", "value": 2, "unit": "subjects"}, {"measurement": "Subjects with ALT and/or AST elevations (all Grade 1)", "setting": "[1]; 50 mg", "value": 2, "unit": "subjects"}, {"measurement": "Subjects with ALT and/or AST elevations (all Grade 1)", "setting": "[1]; 100 mg", "value": 1, "unit": "subject"}, {"measurement": "Subjects with ALT and/or AST elevations (all Grade 1)", "setting": "[1]; 150 mg", "value": 1, "unit": "subject"}, {"measurement": "Tolerability", "setting": "[1]; 25-150 mg once daily, 10 days", "value": "generally well tolerated"}, {"measurement": "Treatment-emergent AE: diarrhea", "setting": "[1]; Study 201, all subjects", "value": 16.7, "unit": "%"}, {"measurement": "Treatment-emergent AE: fatigue", "setting": "[1]; Study 201, all subjects", "value": 11.0, "unit": "%"}, {"measurement": "Treatment-emergent AE: headache", "setting": "[1]; Study 201, all subjects", "value": 14.8, "unit": "%"}, {"measurement": "Treatment-emergent AE: nausea", "setting": "[1]; Study 201, all subjects", "value": 18.5, "unit": "%"}, {"measurement": "Grade 2-4 elevations in ALT or AST", "setting": "[1]; during the study", "value": "No Grade 2-4 elevations"}, {"measurement": "Monocyte migration ex vivo (CCL2-induced chemotaxis)", "setting": "mouse monocytes", "value": "reduced"}, {"measurement": "Tolerability", "setting": "Mouse toxicity studies", "value": "well tolerated"}, {"measurement": "p24 antigen level in culture fluids", "setting": "HIV-1 BaL; baseline 506 ng/ml", "value": 192, "unit": "ng/mL"}, {"measurement": "Viral RNA in culture fluids", "setting": "HIV-1 BaL; baseline 1.19×10^10", "value": "1.26×10^10 copies/ml"}, {"measurement": "Emax", "setting": "HIV-1; Human immunodeficiency virus 1, 25 mg", "value": 54.9, "unit": "%"}, {"measurement": "Emax", "setting": "HIV-1; Human immunodeficiency virus 1, 50 mg", "value": 79.8, "unit": "%"}, {"measurement": "Emax", "setting": "HIV-1; Human immunodeficiency virus 1, 75 mg", "value": 85.9, "unit": "%"}, {"measurement": "Emax", "setting": "HIV-1; Human immunodeficiency virus 1, 150 mg", "value": 95.9, "unit": "%"}, {"measurement": "Emax in the PK/PD model (HIV-1 RNA)", "setting": "HIV-1; in vivo", "value": "−1.43", "unit": "log10 copies/mL"}, {"measurement": "Inhibition of ligand binding to CCR7", "setting": "CCR7", "value": "did not inhibit"}, {"measurement": "Plasma levels at the approximate trough (14 hours postdose)", "setting": "[2]; BID dosing, Day 6", "value": "increased in a dose-related manner"}, {"measurement": "concentration at 14.5 h", "setting": "[2]; mouse, plasma, mice, Day 6, Group 3, 5 mg/kg/day (BID) oral, ~14 hours postdose (actual 14.5 hours), N=2, 3 of 5 samples below LLOQ (10 ng/mL)", "value": 13.5, "unit": "ng/mL"}, {"measurement": "concentration at 15 h", "setting": "[2]; mouse, plasma, mice, Day 6, Group 4, 20 mg/kg/day (BID) oral, ~14 hours postdose (actual 15 hours)", "value": "81.2 ± 22.8", "unit": "ng/mL"}, {"measurement": "concentration at 15.5 h", "setting": "[2]; mouse, plasma, mice, Day 6, Group 5, 100 mg/kg/day (BID) oral, ~14 hours postdose (actual 15.5 hours)", "value": "551 ± 253", "unit": "ng/mL"}, {"measurement": "concentration at 28 h", "setting": "[2]; mouse, plasma, mice, Day 6, Group 6, 20 mg/kg/day (QD) oral, ~26 hours postdose (actual 28 hours)", "value": "25.7 ± 8.1", "unit": "ng/mL"}]}]}
